Data as given in patent US20100143364A1, “Chimeric Antibodies, Compositions and Methods for Treating Cocaine-Related Disorders” (Vybion, Inc., priority 2008, published 2010).

Assay: pharmacokinetics of cocaine in plasma after i.v. cocaine HCl
Format: in vivo
Conditions: 2-compartment model, no antibody, i.v. cocaine HCl 0.56 mg/kg
Procedure: The monoclonal antibodies, variants and/or derivatives of the present invention use their binding affinity for cocaine and its derivatives to reduce the concentration of cocaine or its derivatives in the brain. Infused antibodies, variants and/or derivatives also produce a dramatic dose-dependent increase in plasma cocaine concentrations and a concomitant decrease in the brain cocaine concentrations produced by an i.v. injection of cocaine HCI (0.56 mg/kg). […] The anti-cocaine antibodies, variants and/or derivatives of the invention increase the area under the plasma cocaine concentration-time curve (AUC) relative to the AUC in the absence of the anti-cocaine antibodies of the invention. The antibodies, variants and/or derivatives of the present invention decrease cocaine's volume of distribution (l/kg). However, cocaine is still rapidly cleared from plasma and its elimination is described by a single compartment model. The antibodies, variants and/or derivatives also produce a decrease in the cocaine AUC in the brain. Therefore, the effect of the antibodies on plasma and brain cocaine concentrations is predominantly due to a change in the distribution of cocaine with negligible effects on its rate of clearance.

Which results are given for COC(=O)[C@H]1[C@@H](OC(=O)c2ccccc2)C[C@@H]2CC[C@H]1N2C [cocaine]?
distribution t1/2α: 1.9 min; terminal elimination t1/2β: 26.1 min
